Data from PubChem BioAssay AID2060501 (Molecular Pharmacology Branch, DTP, NCI, 2025).

System: 282377-053-R-J1-PDC complex spheroids, viability
Assay: Anticancer human tumor 282377-053-R-J1-PDC patient-derived colon adenocarcinoma cell line growth inhibition [GQUAD]
Conditions: for IC50: curve of first compound; for viability, T/C: stronger effect = lower value
Excerpt: DNA G-quadruplex Stabilizer Agents in Combinations in Complex Spheroids
A high-throughput screen of multi-cell type tumor spheroids was designed to identify active combinations of DNA G-quadruplex stabilizer agents and targeted small molecules. Complex spheroids include a stromal component modeled by human endothelial cells (HUVEC) and fibroblasts modeled by human mesenchymal stem cells (MSCs). The concentration ranges selected for each drug and investigational agent were based upon clinically achievable concentrations if the clinical Cmax of the agent was known.
Compounds. The drugs and investigational agents: pidnarulex (CX-5461; NSC782164), APTO-253 (NSC789042), BRACO-19 (NSC847499), peposertib (NSC802822), ceralasertib (NSC780249), elimusertib (NSC800525), camonsertib (NSC841442), AZD-1390 (NSC803789), olaparib (NSC753686), talazoparib (NSC767125), ART-558 (NSC835418), sotorasib (NSC818433), MRTX-1133 (NSC836407), SN-38 (NSC673596), topotecan (NSC609699), etoposide (NSC141540), doxorubicin (NSC123127), gemcitabine (NSC613327), 5-fluorouracil (NSC19893), paclitaxel (NSC125973), vemurafenib (NSC761431), panobinostat (NSC761190), R-306465 (JNJ-16241199; NSC773264), adavosertib (NSC754352), TP-3654 (NSC805149), carboplatin (NSC241240), KSQ-4279 (NSC840948), and staurosporine (NSC755774) were obtained from the National Cancer Institute (NCI) Developmental Therapeutics Program Chemical Repository (34). The FDA-approved anticancer drug set is available from the NCI Developmental Therapeutics Program. […] The stock solutions were prepared in dimethyl sulfoxide (DMSO, Sigma-Aldrich, St. Louis, MO, cat. D2650) at 800-fold the tested concentration and stored at -70 degrees C prior to their use. All drugs and investigational agents were tested over a range starting from a high concentration at or near the clinical Cmax and decreasing in half-log increments. If the clinical Cmax for an agent had not been determined, the highest concentration tested was 10 microM.
2.3 Cell Culture. All cells were maintained in an incubator at 37 degrees C and 5% CO2 with 95% humidity. The PDC lines were cultured according to standard operating procedures established by the NCI PDMR. All PDCs were thawed and cultured in Matrigel-coated flasks prepared with a working solution of 1X Ham's F-12 nutrient mix, without supplementation (Invitrogen, cat. 11765054), 100 U/mL penicillin-streptomycin (Invitrogen, cat. 15140122), and 2.5% Matrigel (Corning Inc., cat. 354248) for the first three passages. The 857933-349-R-J2-PDC line was cultured in 6C/Colon 1B media, which includes advanced DMEM/F-12 (Thermo Fisher Scientific, cat. 12634028), 10 mM HEPES (Thermo Fisher Scientific, cat. 15630080), 1X GlutaMAX supplement (Thermo Fisher Scientific, cat. 35050061), 0.1 mg/mL primocin (InvivoGen, cat. ant-pm-2), 10% defined fetal bovine serum, heat inactivated (HyClone Laboratories Inc., cat. SH30070.03HI), 50% L-WRN conditioned media (ATCC, cat. CRL-3276), 1.25 mM N-Acetyl-L-cysteine (Sigma-Aldrich, cat. A9165), 10 mM nicotinamide (Sigma-Aldrich, cat. N0636), 1X B-27 supplement (Thermo Fisher Scientific, cat. 17504044), 1X N-2 supplement (Thermo Fisher Scientific, cat. 17502048), 10 microM Y-27632 dihydrochloride (Tocris Bioscience, cat. 1254), and 50 ng/mL human EGF recombinant protein (Thermo Fisher Scientific, cat. PHG0311). The 485176-168-R4-J1-PDC line was cultured in Panc media, which includes all 6C/Colon 1B media components plus 100 ng/mL human FGF-10 (Thermo Fisher Scientific, cat. 100-26), 500 nM SB-431542 (Selleckchem, cat. S1067), and gastrin (Tocris, cat. 3006).
[…]

[1] = second compound 0.0316 µM, first compound 0.0316 µM
[2] = second compound 0.0316 µM, first compound 0.1 µM
[3] = second compound 0.0316 µM, first compound 0.316 µM
[4] = second compound 0.0316 µM, first compound 1 µM
[5] = second compound 0.0316 µM, first compound 3.16 µM
[6] = second compound 0.0316 µM, first compound 10 µM
[7] = second compound 0.1 µM, first compound 0.0316 µM
[8] = second compound 0.1 µM, first compound 0.1 µM
[9] = second compound 0.1 µM, first compound 0.316 µM
[10] = second compound 0.1 µM, first compound 1 µM
[11] = second compound 0.1 µM, first compound 3.16 µM
[12] = second compound 0.1 µM, first compound 10 µM
[13] = second compound 0.316 µM, first compound 0.0316 µM
[14] = second compound 0.316 µM, first compound 0.1 µM
[15] = second compound 0.316 µM, first compound 0.316 µM
[16] = second compound 0.316 µM, first compound 1 µM
[17] = second compound 0.316 µM, first compound 3.16 µM
[18] = second compound 0.316 µM, first compound 10 µM
[19] = second compound 1 µM, first compound 0.0316 µM
[20] = second compound 1 µM, first compound 0.1 µM
[21] = second compound 1 µM, first compound 0.316 µM
[22] = second compound 1 µM, first compound 1 µM
[23] = second compound 1 µM, first compound 3.16 µM
[24] = second compound 1 µM, first compound 10 µM
[25] = second compound 3.16 µM, first compound 0.0316 µM
[26] = second compound 3.16 µM, first compound 0.1 µM
[27] = second compound 3.16 µM, first compound 0.316 µM
[28] = second compound 3.16 µM, first compound 1 µM
[29] = second compound 3.16 µM, first compound 3.16 µM
[30] = second compound 3.16 µM, first compound 10 µM
[31] = second compound 10 µM, first compound 0.0316 µM
[32] = second compound 10 µM, first compound 0.1 µM
[33] = second compound 10 µM, first compound 0.316 µM
[34] = second compound 10 µM, first compound 1 µM
[35] = second compound 10 µM, first compound 3.16 µM
[36] = second compound 10 µM, first compound 10 µM
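Also: spheroids exposed to compounds for 7 days before readout.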
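For viability, T/C in this document: percent of vehicle DMSO control viability with 100% = untreated-like growth.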

## O=C(NO)c1cnc(N2CCN(S(=O)(=O)c3ccc4ccccc4c3)CC2)nc1 + CN(C)c1ccc(Nc2c3ccc(NC(=O)CCN4CCCC4)cc3nc3cc(NC(=O)CCN4CCCC4)ccc23)cc1
Second compound 0.0316 µM
  IC50: 518 nM
Second compound 0.1 µM
  IC50: 512 nM
Second compound 0.316 µM
  IC50: 536 nM
Second compound 1 µM
  IC50: 508 nM
Second compound 3.16 µM
  IC50: 578 nM
Second compound 10 µM
  IC50: 464 nM
[1]
  viability, T/C: 107%
[2]
  viability, T/C: 128%
[3]
  viability, T/C: 86.8%
[4]
  viability, T/C: 2.18%
[5]
  viability, T/C: 0.16%
[6]
  viability, T/C: 0.17%
[7]
  viability, T/C: 110%
[8]
  viability, T/C: 93.4%
[9]
  viability, T/C: 83.6%
[10]
  viability, T/C: 3.12%
[11]
  viability, T/C: 0.11%
[12]
  viability, T/C: 0.12%
[13]
  viability, T/C: 111%
[14]
  viability, T/C: 101%
[15]
  viability, T/C: 90.6%
[16]
  viability, T/C: 2.03%
[17]
  viability, T/C: 0.1%
[18]
  viability, T/C: 0.11%
[19]
  viability, T/C: 103%
[20]
  viability, T/C: 120%
[21]
  viability, T/C: 84%
[22]
  viability, T/C: 2.22%
[23]
  viability, T/C: 0.08%
[24]
  viability, T/C: 0.11%
[25]
  viability, T/C: 113%
[26]
  viability, T/C: 92.1%
[27]
  viability, T/C: 106%
[28]
  viability, T/C: 1.28%
[29]
  viability, T/C: 0.14%
[30]
  viability, T/C: 0.13%
[31]
  viability, T/C: 93%
[32]
  viability, T/C: 87.8%
[33]
  viability, T/C: 73.1%
[34]
  viability, T/C: 3.72%
[35]
  viability, T/C: 0.18%
[36]
  viability, T/C: 0.17%

## COc1ccc([C@@H](O)c2cc(-c3ncnc4cc(N5CCOCC5)ccc34)c(F)cc2Cl)nn1 + Cc1[nH]c2ccc(F)cc2c1-c1nc2c3cccnc3c3ncccc3c2[nH]1
Second compound 0.0316 µM
  IC50: > 10000 nM
Second compound 0.1 µM
  IC50: > 10000 nM
Second compound 0.316 µM
  IC50: > 10000 nM
Second compound 1 µM
  IC50: > 10000 nM
Second compound 3.16 µM
  IC50: 432 nM
Second compound 10 µM
  IC50: < 31.6 nM
[1]
  viability, T/C: 101%
[2]
  viability, T/C: 91.3%
[3]
  viability, T/C: 102%
[4]
  viability, T/C: 73.9%
[5]
  viability, T/C: 76.3%
[6]
  viability, T/C: 63.8%
[7]
  viability, T/C: 107%
[8]
  viability, T/C: 101%
[9]
  viability, T/C: 97.9%
[10]
  viability, T/C: 84.9%
[11]
  viability, T/C: 72%
[12]
  viability, T/C: 61.1%
[13]
  viability, T/C: 87.8%
[14]
  viability, T/C: 93%
[15]
  viability, T/C: 73.8%
[16]
  viability, T/C: 93.7%
[17]
  viability, T/C: 75.3%
[18]
  viability, T/C: 60.6%
[19]
  viability, T/C: 86.5%
[20]
  viability, T/C: 88.5%
[21]
  viability, T/C: 94.7%
[22]
  viability, T/C: 97.1%
[23]
  viability, T/C: 88.2%
[24]
  viability, T/C: 57.4%
[25]
  viability, T/C: 75.7%
[26]
  viability, T/C: 68.6%
[27]
  viability, T/C: 47.2%
[28]
  viability, T/C: 42.8%
[29]
  viability, T/C: 33.2%
[30]
  viability, T/C: 15.9%
[31]
  viability, T/C: 44.8%
[32]
  viability, T/C: 47.4%
[33]
  viability, T/C: 33.6%
[34]
  viability, T/C: 26.3%
[35]
  viability, T/C: 19.6%
[36]
  viability, T/C: 21.1%
